This note sets out measurements from publication PMC5384453, “A multi-functional PEGylated gold(III) compound: potent anti-cancer properties and self-assembly into nanostructures for drug co-delivery” (Chemical Science, 2016).

Read-outs that look alike come from different tables or passages of the source.

Assay [1] deals with MIHA. Nature of the assay: In vitro cytotoxicity, MTT assay. The format is cell-based.
Procedure: (§2) In vitro cytotoxicity assays. HeLa, NCI-H460, HCT116, A2780, A2780cis and
(§3) cells), respectively, were seeded in 96-well plates for 24 h. The cells were then treated with a serial concentration of gold(III) complexes and incubated at 37 °C under a 5% CO2 atmosphere for 72 h. For nanostructures of 1, 2 and NC1, they were dissolved in
(§4) cisplatin were dissolved in culture medium-DMSO solution mixture (99:1, v/v).
Assay [2] deals with NCI-H460. Nature of the assay: In vitro cytotoxicity, MTT assay. It counts as cell-based, human. The conditions noted are these: NCI-H460, MTT assay, 72 h incubation.
Procedure: as §2, §3, §4
In assay [3] the test system is A2780cis. Nature of the assay: In vitro cytotoxicity, MTT assay. It counts as cell-based, human. Conditions: for IC50: A2780cis, MTT assay, 72 h incubation; for Resistance found in A2780cis: IC50 of A2780cis cells / IC50 of A2780 cells.
Procedure: as §2, §3, §4
In assay [4] the test system is HCT116. Nature of the assay: In vitro cytotoxicity, MTT assay. The format is cell-based, human. The conditions noted are these: HCT116, MTT assay, 72 h incubation.
Procedure: as §2, §3, §4
In assay [5] the test system is L02. Nature of the assay: In vitro cytotoxicity, MTT assay. It counts as cell-based, human. The conditions noted are these: 72 h. As to the method: (§1) page 7: The gold content of the nanocomposites was determined by dissolving the nanocomposites in conc. HNO3 / conc. HCl solution mixture (9:1, v/v; 30 µL), followed by ICP-MS analysis. […] The nanocomposite (10 µL) was dissolved in acetonitrile (90 µL), and subjected to gentle shaking overnight. The solution mixture was then dried under vacuum, and re- dispersed in 0.1 vol% formic acid in water/acetonitrile (7/3, v/v; 1 mL) solution mixture. […] The mobile phase was 0.1 vol% formic acid in water/acetonitrile (7:3, v/v) solution mixture. […] The cells were then treated with a serial concentration of gold(III) complexes and incubated at 37 °C under a 5% CO2 atmosphere for 72 h. […] After incubation for 72 h, MTT in PBS solution (5 mg/mL, 10 μL) was added to each well. The plates were incubated at 37 °C under a 5% CO2 atmosphere for another 4 h, and the cells were lysed by the addition of SDS solution (10%, w/w) with 0.01 M HCl (100 μL). After incubation in dark at 37 °C overnight, the cell viability after treatment was determined by a microtitre plate reader monitoring at the absorbance at 590 nm, P.7 page 8: which reflected the amount of blue formazan formed. IC50 values were then determined by CompuSyn S6 from three independent measurements. Study on the release of hydrolyzed product from 1 and 2 in aqueous buffer solutions by ICP-MS. […] At a predetermined time, an aliquot of solution was removed and dissolved in HNO3/HCl solution mixture (9:1, v/v; volume of aliquot: volume of acid mixture = 1:3). The solution mixture was heated at 65 °C with shaking overnight, and the gold content was determined by ICP-MS from three independent aliquots. […] 37 °C for 24 h. […] Analysis of cell lysate of HCT116 cells treated with complexes 1 and 3 by UPLC- QTOF-MS. […] All the cells were harvested, washed with PBS solution for three times and dispersed in ice-cold water. The cell suspension was then added to ice-cold acetonitrile (1:3, v/v), vortexed for 5 min, and centrifuged at 10,000 rpm at 4 °C. The supernatant was collected, dried under vacuum and the solid was re-dissolved in acetonitrile (HPLC grade) for UPLC- QTOF-MS experiments. The mobile phase was a mixture of 0.1% formic acid in water (phase A) and 0.1% formic acid in acetonitrile (phase B). […] P.46

In assay [6] the test system is CHEM-5. Nature of the assay: In vitro cytotoxicity, MTT assay. Conditions: CHEM-5, MTT assay, 72 h. The format is cell-based, human. How it is done:
as §1

The test system of assay [7] is HeLa. Nature of the assay: In vitro cytotoxicity, MTT assay. The format is cell-based, human. Conditions: HeLa.
Procedure: as §2, §3, §4
Assay [8] has as its system NCM460. Nature of the assay: In vitro cytotoxicity, MTT assay. The format is cell-based, human. Conditions: 72 h incubation.
Procedure: as §2, §3, §4
The subject of assay [9] is A2780. Nature of the assay: In vitro cytotoxicity, MTT assay. The conditions noted are these: A2780, MTT assay, 72 h incubation. The format is cell-based, human.
Procedure: as §2, §3, §4
Assay [10] concerns A2780adr. Nature of the assay: In vitro cytotoxicity, MTT assay. The format is cell-based, human. The conditions noted are these: for IC50: A2780adr; for Resistance found in A2780adr: IC50 of A2780adr cells / IC50 of A2780 cells.
Procedure: as §2, §3, §4
Assay [11] has as its system CCD-19Lu. Nature of the assay: In vitro cytotoxicity, MTT assay. It counts as cell-based, human. The conditions noted are these: 72 h incubation.
Procedure: as §2, §3, §4
Assay [12] relates to HCT116 cells. Nature of the assay: Time-dependent induction of apoptosis, Caspase-3/7 Green ReadyProbes fluorescence microscopy. Conditions: HCT116, NC1 ([1] = 3.5 μM and [DOX] = 0.5 μM) or DOX alone (0.5 μM), Caspase-3/7 Green Reagent. The format is cell-based, human. How it is done:
B from 20.1 to 25 min and returned to initial conditions and equilibrated for 3 minutes.
The flow rate was 0.4 mL/min and the injection volume was 2 µL. The UPLC-QTOF-MS chromatograms of 1, 3, 4 and solvent control in acetonitrile were also recorded for the interpretation of UPLC-QTOF-MS chromatograms of the cell lysate.
Cellular uptake experiments. HCT116, A2780 and A2780adr (2×10 5 cells), and MIHA and NCM460 (3.5×10 5 cells) cells were grown on 6-well plates at 37 °C under an atmosphere of 5% CO2 for 48 h. The culture medium was then removed, washed with PBS solution, and incubated with culture medium containing nanostructures of 1 […]
Au1a (2 µM; with 1 vol% DMSO). At a predetermined time, the culture medium was removed and washed with PBS solution for three times. The cells were then harvested and dispersed in ice-cold water. An aliquot of the cell suspension was subjected to Bio-rad protein assay with a microtitre plate reader at the absorbance at 595 nm, using bovine serum albumin as the protein standard. […] The solution mixture was heated at 65 °C with shaking overnight, and the gold content was determined by ICP-MS. […]
then removed and washed with PBS solution. The cells were then incubated with culture medium containing nanostructures of 1 (2 µM) and CellEvent Caspase-3/7 Green ReadyProbes Reagent (30 µL), or Au1a (2 µM; with 1 vol% DMSO) and CellEvent Caspase-3/7 Green ReadyProbes Reagent (30 µL) at 37 °C under an atmosphere of 5% CO2. Fluorescence images at different time intervals were recorded by the fluorescence microscope without washing the cells. […]
once every 2–3 days. The tumor volume was calculated by the equation: Volume (mm3) = l×w2/2, where l and w were the length and width of the tumor. At the end of the treatment, the nude mice were sacrificed and the tumor weight was measured. […]
At a predetermined time, the culture medium was removed and washed with PBS solution for three times. […] An aliquot of the cell suspension was subjected to Bio-rad protein assay with a microtitre plate reader at the absorbance at 595 nm, using bovine serum albumin as the protein standard. […]

Where [13] appears, read: MTT assay, 72 h incubation, read-out: IC50.
The mark [14] stands for this setting: 72 h, read-out: Total dose at IC50.

In the case of `N.N.[Cl][Pt][Cl]` [Cisplatin, cisplatin, reference compound], the IC50 was found to be 17.6 ± 1.31 µM in [1] (setting [13]); 65.4 ± 5.06 µM in [2]; 8.36 ± 0.05 µM in assay [3]; 15.7 ± 2.2 µM in assay [4]; 5.9 ± 0.02 µM in assay [5]; 13 ± 0.2 µM in assay [6]. The IC50 in assay [7] (setting [13]) is 19.8 ± 1.42 µM; in [8] it was 12.3 ± 0.87 µM; in [9] it was 2.59 ± 0.3 µM; in [10] (setting [13]), 12.7 ± 1.83 µM; in assay [11], 49.1 ± 5.43 µM. For the same compound, in [3], the “Resistance found in A2780cis” value stood at 3.23. Also, the “Resistance found in A2780adr” value in assay [10] came to 5.

As for `COc1cccc2c1C(=O)c1c(O)c3c(c(O)c1C2=O)C[C@@](O)(C(=O)CO)C[C@@H]3O[C@H]1C[C@H](N)[C@H](O)[C@H](C)O1` [DOX, Doxorubicin, reference compound], the IC50 worked out at 0.1 µM in assay [1] (setting [14]); 0.1 ± 0.01 µM in assay [1] (setting [13]); 0.1 µM in assay [1] (read-out: DOX at IC50, 72 h); 0.04 ± 0.01 µM in [2]; 0.05 ± 0.01 µM in [3]; 0.14 ± 0.02 µM in assay [4]. Besides, the IC50 in [7] (setting [14]) was 0.57 µM; in assay [7] (setting [13]), 0.57 ± 0.06 µM; in [7] (read-out: DOX at IC50, 72 h), 0.57 µM; in [9], 0.05 ± 0.01 µM; in assay [10] (setting [14]), 0.68 µM; in assay [10] (setting [13]) it was 0.68 ± 0.05 µM. Moreover, the IC50 in assay [10] (read-out: DOX at IC50, 72 h) was 0.68 µM. Besides, the “Resistance found in A2780cis” value in [3] is 1.20. The “incubation time for induction of apoptosis” value in [12] is given as 30 h. Besides, the “Resistance found in A2780adr” value in assay [10] is 14.3.
